Series [1] concerns the target T1, human steroid 5α-reductase 1 (Homo sapiens, UniProt P18405).
T1 sequence (P18405 1-259): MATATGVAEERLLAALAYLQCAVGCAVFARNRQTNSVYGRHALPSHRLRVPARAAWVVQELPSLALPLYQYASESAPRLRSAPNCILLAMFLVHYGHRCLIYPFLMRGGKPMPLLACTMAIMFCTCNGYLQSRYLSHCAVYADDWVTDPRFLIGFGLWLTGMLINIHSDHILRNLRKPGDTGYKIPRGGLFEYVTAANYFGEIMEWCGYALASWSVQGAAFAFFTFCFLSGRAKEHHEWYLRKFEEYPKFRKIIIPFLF
As to the kind of experiment: steroid 5α-reductase activity/inhibition in vitro, homogenates of COS cells expressing human steroid 5α-reductase 1 cDNA (Table III). Particulars: human enzyme. The source says: (§1) Expression Vector Construction. A rat steroid 5α-reductase cDNA corresponding to nucleotides 1-1962 (see Example 1) was ligated into the pCMV4 expression vector (Andersson et al., 1989b). A human cDNA corresponding to nucleotides 1 to 842 of FIG. 7 was initially ligated into pCMV4. […] After amplification, the product was ligated into pCMV4.
(§2) Expression of Steroid 5α-Reductase 1 cDNAs in COS Cells. Simian COS-M6 cells were transfected as described by Andersson et al. (1989b). The assay of steroid 5α-reductase activity in intact cells was carried out as described in Example 1 except that [^14 C]-labeled steroid dissolved in ethanol were added to the transfected cell medium and subsequent organic extractions were carried out with dichloromethane. TLC and liquid scintillation counting were performed as described in Example 1.
(§3) To assay steroid 5α-reductase activity in vitro, cells were harvested 48 hours after transfection, washed once with phosphate buffered saline and either frozen in liquid N2 or homogenized directly with a Polytron in 10 mM potassium phosphate (pH 7.4), 150 mM KCl and 1 mM EDTA, at a protein concentration of 2 mg/ml. A typical assay contained 10 to 50 μg of cell homogenate protein in 0.5 ml of 0.1M potassium phosphate buffer (pH 6.6, rat enzyme; pH 7.0, human enzyme). Steroids were added in 5 μl ethanol, and the reaction was initiated by the addition of NADPH to a final concentration of 2-5 mM. Incubations were carried out for 10 min at 37° C. and terminated by the addition of 5 ml dichloromethane. Organic execrations and thin-layer chromatography analysis were as described above.
(§4) The apparent Km and Vmax values in this system were determined in vitro with five different steroid substrates (Table III).
(§5) The apparent Ki values were then determined for 4-aza-steroid (4-MA and MK-906) inhibition of 5α-reductases expressed in COS cells. […] The data obtained were analyzed using Dixon plots to determine the type of inhibition and the apparent Ki value (Dixon et al., 1979).
(§6) COS call transfaction, cell homogonate preparation, and enzyme assay were
(§7) carried out as described in Materials and Methods. Each Km value
(§8) represents the average of at least two experiments carried out on
(§9) different days using cell lysates prepared from different transfections.

Series [2] concerns the target T2, rat steroid 5α-reductase (Rattus norvegicus, UniProt P24008).
T2 sequence (P24008 5-259): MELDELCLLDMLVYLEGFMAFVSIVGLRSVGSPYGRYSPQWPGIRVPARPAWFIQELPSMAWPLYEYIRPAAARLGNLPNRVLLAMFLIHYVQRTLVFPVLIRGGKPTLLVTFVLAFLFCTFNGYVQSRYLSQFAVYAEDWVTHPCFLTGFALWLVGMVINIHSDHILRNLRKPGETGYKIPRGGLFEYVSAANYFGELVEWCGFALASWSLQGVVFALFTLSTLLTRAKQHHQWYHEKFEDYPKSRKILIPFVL
As to the kind of experiment: steroid 5α-reductase activity/inhibition in vitro, homogenates of COS cells expressing rat cDNA (Table III). The conditions noted are these: rat enzyme.
Description: as §1, §2, §3, §4, §5, §6, §7, §8, §9

Series [3] concerns the target T3, cloned rat steroid 5α-reductase (Rattus norvegicus, UniProt P24008).
T3 sequence (P24008 5-259): T2 sequence (P24008 5-259)
As to the kind of experiment: substrate specificity / inhibition of cloned rat liver steroid 5α-reductase expressed in Xenopus oocytes. Particulars: for substrate for the cloned enzyme: 5 μM 14C-labeled steroid.

The subject of series [4] is steroid 5α-reductase. The conditions noted are these: Liang et al., 1985; cited from earlier work.
Series [5] has as its system endogenous Xenopus enzyme (presumably a 17β-hydroxysteroid dehydrogenase). As to the kind of experiment: conversion of steroids by endogenous Xenopus oocyte enzymes (control for nonspecific inhibition). The format is cell-based, Xenopus laevis. The conditions noted are these: 5 μM substrate, 5 μM inhibitor.
The target of series [6] is T1, human steroid 5α-reductase 1. Put plainly: steroid 5α-reductase assay in intact transfected COS cells, human type 1 cDNA. The conditions noted are these: human steroid 5α-reductase 1 expressed in COS cells; 37° C., 2 hr. The format is cell-based. Set-up: Human 5α-reductase 1 is 259 residues long; expressed in transfected cells; host or cells: simian COS-M6 cells, pCMV4 vector.
Description: as §1, §2
(§10) COS cells were transiently transfected with expression vectors harboring the rat or human steroid 5α-reductase 1 cDNAs, or with the pCMV4 vector alone.
(§11) IC50 values for MK-906 and 4-MA inhibition of 5α-reductases expressed in COS cells were also determined. […] See Example 6 and FIG. 15, for further analysis of 4-aza-steroid inhibition.

For series [7], the target named is T2, rat steroid 5α-reductase. Put plainly: steroid 5α-reductase assay in intact transfected COS cells, rat cDNA. The format is cell-based. Details: the open reading frame would encode a hydrophobic protein of 255 amino acids; expressed in transfected cells; host or cells: simian COS-M6 cells, pCMV4 vector. The conditions noted are these: rat enzyme expressed in COS cells; 37° C., 2 hr.
Description: as §1, §2, §10, §11

Substrate in series [8]: CC(=O)[C@H]1CC[C@H]2[C@@H]3CCC4=CC(=O)CC[C@]4(C)[C@H]3CC[C@]12C
As to the kind of experiment: cells, lysate or membranes named. Particulars: 0.6 to 20 μM substrate, Lineweaver-Burk, 37.0 °C.

Substrate in series [9]: C[C@]12CCC(=O)C=C1CC[C@@H]1[C@@H]2CC[C@]2(C)C(=O)CC[C@@H]12
As to the kind of experiment: cells, lysate or membranes named. The conditions noted are these: 0.6 to 20 μM substrate, Lineweaver-Burk, 37.0 °C.

Substrate in series [10]: C[C@]12CC[C@H]3[C@@H](CCC4=CC(=O)CC[C@@]43C)[C@@H]1CC[C@@H]2O
Put plainly: cells, lysate or membranes named. Particulars: 0.6 to 20 μM substrate, Lineweaver-Burk, 37.0 °C.

The mark [11] stands for this setting: read-out: apparent Ki, two [14C]testosterone concentrations, Dixon plots.
Setting [12] is: other: rat enzyme in COS cell homogenate.
Where [13] appears, read: other: human enzyme in COS cell homogenate.

Values joined by “and” are separate entries in the source; they are usually repeats but may differ in a detail not shown here. Identical values can stand only once.

`CCN(CC)C(=O)[C@H]1CC[C@H]2[C@@H]3CC[C@H]4N(C)C(=O)CC[C@]4(C)[C@H]3CC[C@]12C` [4-MA, 17α-N,N-diethylcarbamoyl-4-methyl-4-aza-5α-androtane-3-one]: the “apparent Ki (in words)” value in series [1] and in series [2] was “low nanomolar range” each time. Moreover, the type of inhibition result in series [1] (Dixon plots) is on record as “competitive”; in series [2] (Dixon plots), “competitive”; in [4] it was “competitive inhibitors”. Further, the Ki is 7 nM and 8 nM in [1] (setting [11]); 5 nM and 7 nM in [2] (setting [11]). The “effect on reduction of androstenedione” value in series [3] (5 μM substrate, 5 μM inhibitor) is “efficiently blocked”. Moreover, in series [3] (5 μM substrate, 5 μM inhibitor), the “effect on reduction of progesterone” value is given as “efficiently blocked”. The “effect on formation of 5α-reduced products from testosterone” value in series [3] (equimolar testosterone and inhibitor (5 μM each)) is listed as “substantial decrease”. In addition, the “effect on conversion of dihydrotestosterone into other 5α-reduced metabolites by endogenous Xenopus enzymes” value in [5] is on record as “no effect”. The “effect on conversion of testosterone into androstenedione by endogenous Xenopus enzyme” value in series [5] is recorded as “not inhibited”. Also, in [6], the “IC50 inhibition, relative potency of 4-MA versus MK-906” value is listed as “approximately ten-fold more potent than MK-906”. Besides, the “IC50 inhibition, relative potency of MK-906 and 4-MA” value in series [7] is given as “equipotent”.

For the molecule `C[C@]12CCC(=O)C=C1CC[C@@H]1[C@@H]2CC[C@]2(C)C(=O)CC[C@@H]12` [Androstenedione, androstenedione], the “substrate for the cloned enzyme” value in series [3] was “substrates for the cloned enzyme”.

For the molecule `C[C@]12C[C@H](O)[C@H]3[C@@H](CCC4=CC(=O)CC[C@@]43C)[C@@H]1CC[C@@H]2C(=O)CO` [Corticosterone, corticosterone], the “activity towards 11β-substituted steroids” value in series [1] and in series [2] was “very low activities” in each case.

For `C[C@]12CCC(=O)C=C1CC[C@@H]1[C@@H]2[C@@H](O)C[C@@]2(C)[C@H]1CC[C@]2(O)C(=O)CO` [Cortisol, cortisol], the “activity towards 11β-substituted steroids” value in [1] and in [2] was “very low activities” each time.

For the molecule `CC(=O)[C@H]1CC[C@H]2[C@@H]3CCC4=CC(=O)CC[C@]4(C)[C@H]3CC[C@]12C` [Progesterone, progesterone], the “substrate for the cloned enzyme” value in [3] is given as “substrates for the cloned enzyme”.

Turning to `C[C@]12CC[C@H]3[C@@H](CCC4=CC(=O)CC[C@@]43C)[C@@H]1CC[C@@H]2O` [Testosterone, testosterone], in [3] (intact rat steroid 5α-reductase RNA in oocytes (FIG. 6A)), the “reduction of the testosterone substrate” value worked out at 67%.

B1: rat steroid 5α-reductase (Rattus norvegicus) (protein)
chain: T2 sequence (P24008 5-259)
A word on the Km: it is the substrate concentration at which the rate is half of its maximum. Regarding B1, the Km in [8] (setting [12]) came out at 0.5 µM; in series [9] (setting [12]), 2.8 µM; in series [10] (setting [12]), 2.5 µM.

B2: human steroid 5α-reductase 1 (Homo sapiens) (protein)
chain: T1 sequence (P18405 1-259)
Regarding B2, the Km in series [8] (setting [13]) amounted to 0.8 µM; in series [9] (setting [13]), 1.7 µM; in series [10] (setting [13]), 3.6 µM.

(Values after patent US5679521A, “Steroid 5A-reductases” (priority 1995, dated 1997).)
